Laboratory results: US8133998B2, “Bicyclic pyrimidine derivatives as calcium channel blockers” (Zalicus Pharmaceuticals, Ltd., priority 2007, dated 2012)

Experiments:
Assay in all cases: T-type calcium channel block, whole cell patch clamp in HEK cells
Assay type in all cases: cell-based
[1] = target: T1, human α1I T-type channels (Homo sapiens, UniProt Q9P0X4); settings: HEK cells stably expressing human α1I; measured at 1 μM drug; mainly non-inactivated protocol
T1 construct: expressed in transfected cells; host or cells: HEK 293
T1 sequence (Q9P0X4 whole entry): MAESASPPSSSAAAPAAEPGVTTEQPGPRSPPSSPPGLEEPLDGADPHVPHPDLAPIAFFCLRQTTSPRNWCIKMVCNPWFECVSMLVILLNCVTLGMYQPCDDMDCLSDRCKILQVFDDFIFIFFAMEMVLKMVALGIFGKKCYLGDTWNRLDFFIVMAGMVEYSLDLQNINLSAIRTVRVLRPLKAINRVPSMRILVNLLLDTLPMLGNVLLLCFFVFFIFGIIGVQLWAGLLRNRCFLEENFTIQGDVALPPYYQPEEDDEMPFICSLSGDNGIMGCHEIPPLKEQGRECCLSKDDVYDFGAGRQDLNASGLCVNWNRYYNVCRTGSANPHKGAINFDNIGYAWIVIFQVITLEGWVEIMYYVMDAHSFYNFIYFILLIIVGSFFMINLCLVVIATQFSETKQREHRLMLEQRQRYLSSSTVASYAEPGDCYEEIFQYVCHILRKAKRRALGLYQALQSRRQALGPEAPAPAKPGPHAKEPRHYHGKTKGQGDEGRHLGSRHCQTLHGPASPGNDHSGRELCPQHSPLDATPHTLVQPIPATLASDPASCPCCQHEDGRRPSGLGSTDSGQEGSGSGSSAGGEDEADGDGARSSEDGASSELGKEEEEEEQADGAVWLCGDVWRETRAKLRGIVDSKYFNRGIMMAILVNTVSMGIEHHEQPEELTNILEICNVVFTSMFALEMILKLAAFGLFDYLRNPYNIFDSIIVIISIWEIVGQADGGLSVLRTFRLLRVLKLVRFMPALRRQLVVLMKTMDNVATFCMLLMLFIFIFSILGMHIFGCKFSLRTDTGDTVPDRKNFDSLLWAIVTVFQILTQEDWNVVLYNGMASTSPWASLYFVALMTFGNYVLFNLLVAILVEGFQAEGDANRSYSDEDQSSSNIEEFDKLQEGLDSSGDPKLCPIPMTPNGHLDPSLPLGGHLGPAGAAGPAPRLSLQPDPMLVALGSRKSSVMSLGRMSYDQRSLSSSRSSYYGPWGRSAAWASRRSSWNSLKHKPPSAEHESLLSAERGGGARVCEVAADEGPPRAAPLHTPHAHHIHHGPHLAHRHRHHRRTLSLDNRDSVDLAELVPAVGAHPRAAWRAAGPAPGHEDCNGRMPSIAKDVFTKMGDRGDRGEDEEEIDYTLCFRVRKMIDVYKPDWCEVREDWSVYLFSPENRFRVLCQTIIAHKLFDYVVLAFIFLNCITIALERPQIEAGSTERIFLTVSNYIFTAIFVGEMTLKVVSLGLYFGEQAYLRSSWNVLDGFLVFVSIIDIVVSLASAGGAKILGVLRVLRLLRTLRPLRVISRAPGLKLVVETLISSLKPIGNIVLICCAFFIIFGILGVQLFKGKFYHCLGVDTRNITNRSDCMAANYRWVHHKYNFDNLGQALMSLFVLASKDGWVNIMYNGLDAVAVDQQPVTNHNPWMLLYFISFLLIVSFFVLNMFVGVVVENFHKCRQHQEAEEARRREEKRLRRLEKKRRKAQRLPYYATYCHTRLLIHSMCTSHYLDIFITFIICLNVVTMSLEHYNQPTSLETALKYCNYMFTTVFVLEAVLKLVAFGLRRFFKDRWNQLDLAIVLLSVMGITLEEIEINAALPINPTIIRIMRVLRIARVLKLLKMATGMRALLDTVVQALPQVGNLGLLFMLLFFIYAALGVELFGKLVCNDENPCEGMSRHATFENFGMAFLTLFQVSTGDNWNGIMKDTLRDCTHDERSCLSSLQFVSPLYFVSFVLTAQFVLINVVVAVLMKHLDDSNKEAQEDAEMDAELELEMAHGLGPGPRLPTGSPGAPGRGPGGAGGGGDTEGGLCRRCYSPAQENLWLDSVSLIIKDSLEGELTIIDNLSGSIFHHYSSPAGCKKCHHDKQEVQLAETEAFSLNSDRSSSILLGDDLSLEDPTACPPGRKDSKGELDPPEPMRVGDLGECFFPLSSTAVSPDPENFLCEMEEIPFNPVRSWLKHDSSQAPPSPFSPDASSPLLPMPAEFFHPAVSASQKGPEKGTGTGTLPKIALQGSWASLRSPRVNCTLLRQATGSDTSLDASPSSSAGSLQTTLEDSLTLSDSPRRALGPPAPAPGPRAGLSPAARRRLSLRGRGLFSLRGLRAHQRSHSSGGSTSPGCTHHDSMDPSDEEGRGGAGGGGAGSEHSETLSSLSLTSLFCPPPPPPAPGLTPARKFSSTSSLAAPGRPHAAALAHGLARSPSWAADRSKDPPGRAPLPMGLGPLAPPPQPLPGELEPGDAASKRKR
Method: (§1) T-type calcium channel blocking activity was assayed in human embryonic kidney cells, HEK 293, stably transfected with the T-type calcium channel subunits. Briefly, cells were cultured in Dulbecco's modified eagle medium (DMEM) supplemented with 10% fetal bovine serum, 200 U/ml penicillin and 0.2 mg/ml streptomycin at 37° C. with 5% CO2. At 85% confluency cells were split with 0.25% trypsin/1 mM EDTA and plated at 10% confluency on glass coverslips. At 12 hours the medium was replaced and the cells stably transfected using a standard calcium phosphate protocol and the appropriate calcium channel cDNA's. Fresh DMEM was supplied and the cells transferred to 28° C./5% CO2. Cells were incubated for 1 to 2 days prior to whole cell recording.
(§2) Standard patch-clamp techniques were employed to identify blockers of T-type currents. Briefly, previously described HEK cell lines stably expressing human α1G, α1H and α1I T-type channels were used for all the recordings (passage #: 4-20, 37° C., 5% CO2). Whole cell patch clamp experiments were performed using an Axopatch 200B amplifier (Axon Instruments, Burlingame, Calif.) linked to a personal computer equipped with pCLAMP software. Data were analyzed using Clampfit (Axon Instruments) and SigmaPlot 4.0 (Jandel Scientific). To obtain T-type currents, plastic dishes containing semi-confluent cells were positioned on the stage of a ZEISS AXIOVERT S100 microscope after replacing the culture medium with external solution (see below). Whole-cell patches were obtained using pipettes (borosilicate glass with filament, O.D.: 1.5 mm, I.D.: 0.86 mm, 10 cm length), fabricated on a SUTTER P-97 puller with resistance values of ˜5 MΩ (see below for internal solution).
(§3) In the non-inactivating protocol, the holding potential is set at −110 mV and with a pre-pulse at −100 mV for 1 second prior to the test pulse at −40 mV for 50 ms. In the inactivation protocol, the pre-pulse is at approximately −85 mV for 1 second, which inactivates about 15% of the T-type channels.
(§4) Test compounds were dissolved in external solution, 0.1-0.01% DMSO. After ˜10 min rest, they were applied by gravity close to the cell using a WPI microfil tubing. The “non-inactivated” pre-pulse was used to examine the resting block of a compound. The “inactivated” protocol was employed to study voltage-dependent block. However, the initial data shown below were mainly obtained using the non-inactivated protocol only. Kd values are shown for various compounds of the invention in Table 4 measured at 1 μM for the drug of interest except for compound 18 which was measured at 200 nM.

[2] = target: T2, human α1G T-type channels (Homo sapiens, UniProt O43497); settings: HEK cells stably expressing human α1G; measured at 1 μM drug; mainly non-inactivated protocol
T2 construct: expressed in transfected cells; host or cells: HEK 293
T2 sequence (O43497 whole entry): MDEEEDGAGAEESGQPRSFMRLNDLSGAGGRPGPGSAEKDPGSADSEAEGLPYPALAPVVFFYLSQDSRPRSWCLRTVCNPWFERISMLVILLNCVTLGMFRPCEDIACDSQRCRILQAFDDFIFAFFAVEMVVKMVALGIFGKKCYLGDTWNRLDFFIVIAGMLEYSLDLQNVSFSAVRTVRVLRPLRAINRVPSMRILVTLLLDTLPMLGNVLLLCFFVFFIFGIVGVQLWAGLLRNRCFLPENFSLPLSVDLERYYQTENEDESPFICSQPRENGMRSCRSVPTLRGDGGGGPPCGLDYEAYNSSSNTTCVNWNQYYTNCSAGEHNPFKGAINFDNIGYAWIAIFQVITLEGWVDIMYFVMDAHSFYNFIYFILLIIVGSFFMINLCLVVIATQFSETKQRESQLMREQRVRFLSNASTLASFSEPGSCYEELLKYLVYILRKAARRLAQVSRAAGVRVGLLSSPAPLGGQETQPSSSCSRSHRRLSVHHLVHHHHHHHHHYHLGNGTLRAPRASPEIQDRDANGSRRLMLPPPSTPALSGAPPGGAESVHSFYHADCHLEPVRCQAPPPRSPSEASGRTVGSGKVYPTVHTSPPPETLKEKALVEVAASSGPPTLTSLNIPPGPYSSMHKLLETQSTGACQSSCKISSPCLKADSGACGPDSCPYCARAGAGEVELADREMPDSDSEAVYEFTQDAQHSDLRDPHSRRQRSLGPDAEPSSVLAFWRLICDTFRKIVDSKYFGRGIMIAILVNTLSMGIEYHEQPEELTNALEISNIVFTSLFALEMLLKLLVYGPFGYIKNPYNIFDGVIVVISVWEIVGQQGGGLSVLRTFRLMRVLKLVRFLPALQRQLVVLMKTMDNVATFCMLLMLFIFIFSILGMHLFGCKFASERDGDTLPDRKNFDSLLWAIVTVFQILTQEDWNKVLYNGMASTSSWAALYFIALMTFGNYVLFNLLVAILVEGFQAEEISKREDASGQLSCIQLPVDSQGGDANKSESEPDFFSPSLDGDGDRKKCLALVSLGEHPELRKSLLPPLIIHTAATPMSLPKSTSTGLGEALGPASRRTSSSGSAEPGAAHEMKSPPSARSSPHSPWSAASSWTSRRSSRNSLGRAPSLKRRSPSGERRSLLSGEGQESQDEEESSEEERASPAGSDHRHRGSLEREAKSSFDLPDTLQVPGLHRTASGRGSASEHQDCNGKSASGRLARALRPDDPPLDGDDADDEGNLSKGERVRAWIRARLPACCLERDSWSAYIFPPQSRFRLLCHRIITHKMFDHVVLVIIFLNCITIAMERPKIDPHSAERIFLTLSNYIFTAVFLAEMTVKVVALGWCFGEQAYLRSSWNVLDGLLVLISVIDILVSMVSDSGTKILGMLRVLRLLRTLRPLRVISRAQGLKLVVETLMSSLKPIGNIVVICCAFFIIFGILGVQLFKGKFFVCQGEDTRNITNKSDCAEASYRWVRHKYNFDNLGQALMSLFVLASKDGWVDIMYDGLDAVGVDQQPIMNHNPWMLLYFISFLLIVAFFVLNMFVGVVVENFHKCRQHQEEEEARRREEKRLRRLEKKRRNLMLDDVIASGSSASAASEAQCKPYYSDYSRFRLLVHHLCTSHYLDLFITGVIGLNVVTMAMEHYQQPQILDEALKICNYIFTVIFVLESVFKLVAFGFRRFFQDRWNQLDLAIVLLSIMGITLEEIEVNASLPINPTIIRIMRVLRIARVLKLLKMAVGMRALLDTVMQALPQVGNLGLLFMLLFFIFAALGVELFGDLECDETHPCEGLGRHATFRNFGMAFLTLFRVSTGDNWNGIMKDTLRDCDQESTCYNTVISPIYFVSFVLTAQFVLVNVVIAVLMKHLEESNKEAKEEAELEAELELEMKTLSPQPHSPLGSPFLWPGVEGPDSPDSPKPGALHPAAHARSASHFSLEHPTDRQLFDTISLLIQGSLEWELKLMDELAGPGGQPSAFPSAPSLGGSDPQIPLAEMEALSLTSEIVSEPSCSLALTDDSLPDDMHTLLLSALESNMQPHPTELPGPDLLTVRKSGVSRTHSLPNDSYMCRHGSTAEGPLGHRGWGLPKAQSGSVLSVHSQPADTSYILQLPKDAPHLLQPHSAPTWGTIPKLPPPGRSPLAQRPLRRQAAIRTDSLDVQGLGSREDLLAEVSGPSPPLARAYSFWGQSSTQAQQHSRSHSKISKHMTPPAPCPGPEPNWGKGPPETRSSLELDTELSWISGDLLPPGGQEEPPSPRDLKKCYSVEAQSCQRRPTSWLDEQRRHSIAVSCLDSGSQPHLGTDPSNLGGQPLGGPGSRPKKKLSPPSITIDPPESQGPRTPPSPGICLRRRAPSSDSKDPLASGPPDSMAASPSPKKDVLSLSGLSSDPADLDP
Method: as §1, §2, §3, §4

[3] = target: T3, human α1H T-type channels (Homo sapiens, UniProt O95180); settings: HEK cells stably expressing human α1H; measured at 1 μM drug; mainly non-inactivated protocol
T3 construct: expressed in transfected cells; host or cells: HEK 293
Method: as §1, §2, §3, §4

Compound | Kd [1] [nM] | Kd [2] [nM] | Kd [3] [nM]
CCN(CC)C(=O)Cn1cnc2sc(C(=O)N3CCN(c4ccc(Cl)c(Cl)c4)CC3)c(C)c2c1=O [Compound 6, 2-(6-(4-(3,4-dichlorophenyl)piperazine-1-carbonyl)-5-methyl-4-oxothieno[2,3-d]pyrimidin-3(4H)-yl)-N,N-diethylacetamide] | 9670 | 950 | 340
CCN(CC)C(=O)Cn1cnc2sc(C(=O)N3CCN(c4ccc(Cl)c(C(F)(F)F)c4)CC3)c(C)c2c1=O [Compound 8, 2-(6-(4-(4-chloro-3-(trifluoromethyl)phenyl)piperazine-1-carbonyl)-5-methyl-4-oxothieno[2,3-d]pyrimidin-3(4H)-yl)-N,N-diethylacetamide] |  | 450 | 540
CCN(CC)C(=O)Cn1cnc2sc(C(=O)N3CCN(c4ccc(C(F)(F)F)cc4)CC3)c(C)c2c1=O [Compound 10, N,N-diethyl-2-(5-methyl-4-oxo-6-(4-(4-(trifluoromethyl)phenyl)piperazine-1-carbonyl)thieno[2,3-d]pyrimidin-3(4H)-yl)acetamide] | > 31300 | 1220 | 300
Cc1c(C(=O)N2CCN(c3cccc(C(F)(F)F)c3)CC2)sc2ncn(CC(=O)NC(C)(C)C)c(=O)c12 [Compound 12, N-tert-butyl-2-(5-methyl-4-oxo-6-(4-(3-(trifluoromethyl)phenyl)piperazine-1-carbonyl)thieno[2,3-d]pyrimidin-3(4H)-yl)acetamide] |  | 1960 | 1060
Cc1c(C(=O)N2CCN(c3ccc(Cl)cc3)CC2)sc2ncn(CC(=O)NC(C)(C)C)c(=O)c12 [Compound 15, N-tert-butyl-2-(6-(4-(4-chlorophenyl)piperazine-1-carbonyl)-5-methyl-4-oxothieno[2,3-d]pyrimidin-3(4H)-yl)acetamide] |  | 2370 | 870
Cc1c(C(=O)N2CCN(c3cccc(Cl)c3)CC2)sc2ncn(CC(=O)NC(C)(C)C)c(=O)c12 [Compound 16, N-tert-butyl-2-(6-(4-(3-chlorophenyl)piperazine-1-carbonyl)-5-methyl-4-oxothieno[2,3-d]pyrimidin-3(4H)-yl)acetamide] |  | 1370 | 630
Cc1c(C(=O)N2CCN(c3cc(C(F)(F)F)cc(C(F)(F)F)c3)CC2)sc2ncn(CC(=O)NC(C)(C)C)c(=O)c12 [Compound 17, 2-(6-(4-(3,5-bis(trifluoromethyl)phenyl)piperazine-1-carbonyl)-5-methyl-4-oxothieno[2,3-d]pyrimidin-3(4H)-yl)-N-tert-butylacetamide] |  | 510 | 500
Cc1c(C(=O)N2CCN(c3ccccc3)CC2)sc2ncn(CC(=O)NC3CCCCC3)c(=O)c12 [Compound 19, N-cyclohexyl-2-(5-methyl-4-oxo-6-(4-phenylpiperazine-1-carbonyl)thieno[2,3-d]pyrimidin-3(4H)-yl)acetamide] | 2380 | 3600 | 360
Cc1c(C(=O)N2CCN(c3ccc(Cl)cc3)CC2)sc2ncn(CC(=O)NC3CCCCC3)c(=O)c12 [Compound 20, 2-(6-(4-(4-chlorophenyl)piperazine-1-carbonyl)-5-methyl-4-oxothieno[2,3-d]pyrimidin-3(4H)-yl)-N-cyclohexylacetamide] | 2100 | 330 | 180
Cc1c(C(=O)N2CCN(c3cccc(F)c3)CC2)sc2ncn(CC(=O)NC3CCCCC3)c(=O)c12 [Compound 21, N-cyclohexyl-2-(6-(4-(3-fluorophenyl)piperazine-1-carbonyl)-5-methyl-4-oxothieno[2,3-d]pyrimidin-3(4H)-yl)acetamide] | 5200 | 610 | 190
Cc1c(C(=O)N2CCN(c3ccc(F)cc3)CC2)sc2ncn(CC(=O)NC3CCCCC3)c(=O)c12 [Compound 22, N-cyclohexyl-2-(6-(4-(4-fluorophenyl)piperazine-1-carbonyl)-5-methyl-4-oxothieno[2,3-d]pyrimidin-3(4H)-yl)acetamide] |  | 1360 | 430
Cc1c(C(=O)N2CCN(c3ccccc3F)CC2)sc2ncn(CC(=O)NC3CCCCC3)c(=O)c12 [Compound 23, N-cyclohexyl-2-(6-(4-(2-fluorophenyl)piperazine-1-carbonyl)-5-methyl-4-oxothieno[2,3-d]pyrimidin-3(4H)-yl)acetamide] | 3270 | 1260 | 280
Cc1c(C(=O)N2CCN(c3cccc(Cl)c3)CC2)sc2ncn(CC(=O)NC3CCCCC3)c(=O)c12 [Compound 24, 2-(6-(4-(3-chlorophenyl)piperazine-1-carbonyl)-5-methyl-4-oxothieno[2,3-d]pyrimidin-3(4H)-yl)-N-cyclohexylacetamide] | 1520 | 300 | 90
Cc1c(C(=O)N2CCN(c3ccccc3F)CC2)sc2ncn(CC(=O)NC3CCCC3)c(=O)c12 [Compound 36, N-cyclopentyl-2-(6-(4-(2-fluorophenyl)piperazine-1-carbonyl)-5-methyl-4-oxothieno[2,3-d]pyrimidin-3(4H)-yl)acetamide] |  | 1720 | 750
Cc1c(C(=O)N2CCN(c3cccc(Cl)c3)CC2)sc2ncn(CC(=O)N3CCC(F)(F)C3)c(=O)c12 [Compound 78, 6-(4-(3-chlorophenyl)-piperazine-1-carbonyl)-3-(2-(3,3-difluoropyrrolidin-1-yl)-2-oxoethyl)-5-methylthieno[2,3-d]pyrimidin-4(3H)-one] |  | 620 | 400
Cc1c(C(=O)N2CCN(c3ccccc3F)CC2)sc2ncn(CC(=O)N3CCCCC3)c(=O)c12 [Compound 81, 6-(4-(2-fluorophenyl)piperazine-1-carbonyl)-5-methyl-3-(2-oxo-2-(piperidin-1-yl)ethyl)thieno[2,3-d]pyrimidin-4(3H)-one] |  | 1680 | 720
Cc1c(C(=O)N2CCN(c3ccccc3F)CC2)sc2ncn(CC(=O)N3CCC(C(F)(F)F)CC3)c(=O)c12 [Compound 89, 6-(4-(2-fluorophenyl)piperazine-1-carbonyl)-5-methyl-3-(2-oxo-2-((4-trifluoromethyl)piperidin-1-yl)ethyl) thieno[2,3-d]pyrimidin-4(3H)-one] |  | 630 | 420
CCN(CC(F)(F)F)C(=O)Cn1cnc2sc(C(=O)N3CCN(c4cccc(Cl)c4)CC3)c(C)c2c1=O [Compound 127, 2-(6-(4-(3-chlorophenyl)piperazine-1-carbonyl)-5-methyl-4-oxothieno[2,3-d]pyrimidin-3(4H)-yl)-N-ethyl-N-(2,2,2-trifluoroethyl)acetamide] |  | 1150 | 630
CCN(CC(F)(F)F)C(=O)Cn1cnc2sc(C(=O)N3CCN(c4ccc(C(F)(F)F)cc4)CC3)c(C)c2c1=O [Compound 130, N-ethyl-2-(5-methyl-4-oxo-6-(4-(4-(trifluromethyl)phenyl)piperazine-1-carbonyl)thieno[2,3-d]pyrimidin-3(4H)-yl)-N-(2,2,2-trifluoroethyl)acetamide] |  | 3470 | 390
Cc1c(C(=O)N2CCN(c3ccc(F)c(Cl)c3)CC2)sc2ncn(CC(=O)N3CCCC3)c(=O)c12 [Compound 134, 6-(4-(3-chloro-4-fluoro-phenyl)piperazine-1-carbonyl)-5-methyl-3-(2-oxo-2-(pyrrolidin-1-yl)ethyl)thieno[2,3-d]pyri-midin-4(3H)-one] |  | 510 | 18200
Cc1c(C(=O)N2CCN(c3ccc(F)c(Cl)c3)CC2)sc2ncn(CC(=O)N3CC[C@H](F)C3)c(=O)c12 [Compound 137, (S)-6-(4-(3-chloro-4-fluoro-phenyl)piperazine-1-carbonyl)-3-(2-(3-fluoro-pyrrolidin-1-yl)-2-oxoethyl)-5-methyl-thieno[2,3-d]pyrimidin-4(3H)-one] |  | 1800 | > 8440
Cc1c(C(=O)N2CCN(c3ccccc3F)CC2)sc2ncn(CC(=O)Nc3ccc(C(F)(F)F)cc3)c(=O)c12 [Compound 142, 2-(6-(4-(2-fluorophenyl)piperazine-1-carbonyl)-5-methyl-4-oxothieno[2,3-d]pyrimidin-3(4H)-yl)-N-(4-(trifluoromethyl)phenyl)acetamide] |  | 1160 | 700
